Source: article PMC7265341, “Quantifying CDK inhibitor selectivity in live cells” (Nature Communications, 2020)
Several values for one entry are separate records, joined by “and”; a condition that tells them apart may be missing. Identical values can stand only once. Like-named read-outs stand apart in the source and are kept apart here.

Assays:
CDK1/Cyclin E1 = CDK1/Cyclin E1 (Homo sapiens, UniProt P06493); experiment: NanoBRET live-cell target engagement, CDK1-NanoLuc/Cyclin E1 in HEK-293; type: binding; settings: CDK1/E1; for IC50: read-out: IC50
CDK2/Cyclin E1 = CDK2/Cyclin E1 (Homo sapiens, UniProt P24941); experiment: NanoBRET live-cell target engagement, CDK2-NanoLuc/Cyclin E1 in HEK-293; type: binding; settings: 10 µM
CDK4/Cyclin D1 = CDK4/Cyclin D1 (Homo sapiens, UniProt P11802); experiment: NanoBRET live-cell target engagement, NanoLuc-CDK4/Cyclin D1 in HEK-293; type: binding; settings: CDK4/D1; for IC50: read-out: IC50
CDK5/CDK5R1 = CDK5/CDK5R1 (Homo sapiens, UniProt Q00535); experiment: NanoBRET live-cell target engagement, CDK5-NanoLuc/CDK5R1 in HEK-293; type: binding; settings: CDK5/CDK5R1; for IC50: read-out: IC50
CDK6/Cyclin D1 = CDK6/Cyclin D1 (Homo sapiens, UniProt Q00534); experiment: NanoBRET live-cell target engagement, NanoLuc-CDK6/Cyclin D1 in HEK-293; type: binding; settings: CDK6/D1; for IC50: read-out: IC50
CDK8/Cyclin C = CDK8/Cyclin C (Homo sapiens, UniProt P49336); experiment: NanoBRET live-cell target engagement, NanoLuc-CDK8/Cyclin C in HEK-293; type: binding; settings: CDK8/C
CDK11A/Cyclin L2 = target: T1, CDK11A/Cyclin L2 (Homo sapiens, UniProt Q9UQ88); experiment: NanoBRET live-cell target engagement, CDK11A-NanoLuc/Cyclin L2 in HEK-293; type: binding; settings: CDK11a/L2; for IC50: read-out: IC50
T1 sequence (Q9UQ88 1-783): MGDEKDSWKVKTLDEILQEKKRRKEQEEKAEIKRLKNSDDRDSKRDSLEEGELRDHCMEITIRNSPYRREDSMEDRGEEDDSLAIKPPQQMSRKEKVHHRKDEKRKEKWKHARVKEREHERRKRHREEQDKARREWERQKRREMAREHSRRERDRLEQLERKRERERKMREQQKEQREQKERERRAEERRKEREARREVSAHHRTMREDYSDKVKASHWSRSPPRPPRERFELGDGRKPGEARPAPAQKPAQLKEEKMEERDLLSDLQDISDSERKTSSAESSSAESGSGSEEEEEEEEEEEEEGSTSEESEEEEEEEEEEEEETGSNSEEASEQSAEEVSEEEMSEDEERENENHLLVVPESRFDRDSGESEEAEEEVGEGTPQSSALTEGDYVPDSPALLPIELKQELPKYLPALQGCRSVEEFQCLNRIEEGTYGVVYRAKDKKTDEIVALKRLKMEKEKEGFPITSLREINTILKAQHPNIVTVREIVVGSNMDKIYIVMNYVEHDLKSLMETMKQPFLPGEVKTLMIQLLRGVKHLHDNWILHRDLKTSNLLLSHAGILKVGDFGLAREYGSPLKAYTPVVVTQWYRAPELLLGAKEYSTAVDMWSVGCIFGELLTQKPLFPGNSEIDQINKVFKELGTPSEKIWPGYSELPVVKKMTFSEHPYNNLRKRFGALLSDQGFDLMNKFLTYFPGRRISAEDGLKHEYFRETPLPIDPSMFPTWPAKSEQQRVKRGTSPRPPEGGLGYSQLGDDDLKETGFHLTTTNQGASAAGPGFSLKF

CDK11B/Cyclin L2 = CDK11B/Cyclin L2 (Homo sapiens, UniProt P21127); experiment: NanoBRET live-cell target engagement, CDK11B-NanoLuc/Cyclin L2 in HEK-293; type: binding; settings: CDK11b/L2; for IC50: read-out: IC50
CDK12/Cyclin K = CDK12/Cyclin K (Homo sapiens, UniProt Q9NYV4); experiment: NanoBRET live-cell target engagement, CDK12-NanoLuc/Cyclin K in HEK-293; type: binding; settings: CDK12/K
CDK13/Cyclin K = CDK13/Cyclin K (Homo sapiens, UniProt Q14004); experiment: NanoBRET live-cell target engagement, CDK13-NanoLuc/Cyclin K in HEK-293; type: binding; settings: CDK13/K
CDK14/Cyclin Y = CDK14/Cyclin Y (Homo sapiens, UniProt O94921); experiment: NanoBRET live-cell target engagement, CDK14-NanoLuc/Cyclin Y in HEK-293; type: binding; settings: CDK14/Y; for IC50: read-out: IC50
CDK15/Cyclin Y = CDK15/Cyclin Y (Homo sapiens, UniProt Q96Q40); experiment: NanoBRET live-cell target engagement, NanoLuc-CDK15/Cyclin Y in HEK-293; type: binding; settings: CDK15/Y; for IC50: read-out: IC50
CDK16/Cyclin Y = CDK16/Cyclin Y (Homo sapiens, UniProt Q00536); experiment: NanoBRET live-cell target engagement, CDK16-NanoLuc/Cyclin Y in HEK-293; type: binding; settings: CDK16/Y; for IC50: read-out: IC50
CDK17/Cyclin Y = CDK17/Cyclin Y (Homo sapiens, UniProt Q00537); experiment: NanoBRET live-cell target engagement, CDK17-NanoLuc/Cyclin Y in HEK-293; type: binding; settings: CDK17/Y; for IC50: read-out: IC50
CDK18/Cyclin Y = CDK18/Cyclin Y (Homo sapiens, UniProt Q07002); experiment: NanoBRET live-cell target engagement, CDK18-NanoLuc/Cyclin Y in HEK-293; type: binding; settings: CDK18/Y; for IC50: read-out: IC50
CDK20/Cyclin H = CDK20/Cyclin H (Homo sapiens, UniProt Q8IZL9); experiment: NanoBRET live-cell target engagement, NanoLuc-CDK20/Cyclin H in HEK-293; type: binding; settings: CDK20/H
CDK19/Cyclin C = CDK19/Cyclin C (Homo sapiens, UniProt Q9BWU1); experiment: NanoBRET live-cell target engagement, NanoLuc-CDK19/Cyclin C in HEK-293; settings: CDK19/C
CDK10/Cyclin L2 = CDK10/Cyclin L2 (Homo sapiens, UniProt Q15131); experiment: NanoBRET live-cell target engagement, CDK10-NanoLuc/Cyclin L2 in HEK-293; settings: CDK10/L2
CDK10/Cyclin L2, sequence (Q15131 whole entry): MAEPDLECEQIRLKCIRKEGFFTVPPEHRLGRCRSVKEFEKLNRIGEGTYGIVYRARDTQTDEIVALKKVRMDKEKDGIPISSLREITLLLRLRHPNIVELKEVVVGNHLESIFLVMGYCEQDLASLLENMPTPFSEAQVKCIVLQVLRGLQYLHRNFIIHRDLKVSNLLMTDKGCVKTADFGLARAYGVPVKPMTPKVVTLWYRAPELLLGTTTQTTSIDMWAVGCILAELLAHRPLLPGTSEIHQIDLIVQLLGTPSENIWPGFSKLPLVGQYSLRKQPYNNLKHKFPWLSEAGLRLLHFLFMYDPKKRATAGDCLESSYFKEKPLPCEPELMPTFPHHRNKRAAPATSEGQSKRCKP

CDK4/Cyclin D1, sequence (P11802 whole entry): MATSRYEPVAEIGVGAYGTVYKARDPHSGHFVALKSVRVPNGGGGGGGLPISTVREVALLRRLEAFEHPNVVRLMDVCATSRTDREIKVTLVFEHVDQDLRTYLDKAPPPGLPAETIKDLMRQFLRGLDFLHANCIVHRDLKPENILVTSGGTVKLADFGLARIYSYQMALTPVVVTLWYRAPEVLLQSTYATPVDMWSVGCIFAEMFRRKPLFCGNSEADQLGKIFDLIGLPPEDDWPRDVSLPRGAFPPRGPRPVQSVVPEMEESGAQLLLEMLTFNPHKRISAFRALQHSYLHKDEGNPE
CDK4/Cyclin D1, sequence (P24385 whole entry partner): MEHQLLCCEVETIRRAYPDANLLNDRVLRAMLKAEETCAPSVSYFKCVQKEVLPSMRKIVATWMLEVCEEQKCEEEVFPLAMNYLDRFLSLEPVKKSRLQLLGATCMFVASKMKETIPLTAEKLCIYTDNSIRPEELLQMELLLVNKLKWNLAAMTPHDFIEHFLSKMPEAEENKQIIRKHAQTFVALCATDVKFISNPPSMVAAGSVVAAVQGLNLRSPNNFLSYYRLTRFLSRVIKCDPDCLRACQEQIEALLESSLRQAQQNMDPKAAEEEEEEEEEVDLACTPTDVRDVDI
CDK14/Cyclin Y, sequence (O94921 whole entry): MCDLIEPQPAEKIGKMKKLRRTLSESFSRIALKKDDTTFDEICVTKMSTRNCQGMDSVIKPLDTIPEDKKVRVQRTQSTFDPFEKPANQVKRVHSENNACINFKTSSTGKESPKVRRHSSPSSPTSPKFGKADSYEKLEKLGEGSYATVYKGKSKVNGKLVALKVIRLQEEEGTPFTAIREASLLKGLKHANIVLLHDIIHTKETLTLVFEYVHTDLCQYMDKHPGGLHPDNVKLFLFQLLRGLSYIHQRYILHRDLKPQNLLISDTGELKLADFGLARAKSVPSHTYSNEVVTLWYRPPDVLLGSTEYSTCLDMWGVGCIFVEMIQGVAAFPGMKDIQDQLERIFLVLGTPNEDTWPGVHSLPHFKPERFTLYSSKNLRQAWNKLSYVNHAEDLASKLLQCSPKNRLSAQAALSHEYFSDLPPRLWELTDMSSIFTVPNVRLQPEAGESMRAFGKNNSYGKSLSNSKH
CDK14/Cyclin Y, sequence (Q8ND76 whole entry partner): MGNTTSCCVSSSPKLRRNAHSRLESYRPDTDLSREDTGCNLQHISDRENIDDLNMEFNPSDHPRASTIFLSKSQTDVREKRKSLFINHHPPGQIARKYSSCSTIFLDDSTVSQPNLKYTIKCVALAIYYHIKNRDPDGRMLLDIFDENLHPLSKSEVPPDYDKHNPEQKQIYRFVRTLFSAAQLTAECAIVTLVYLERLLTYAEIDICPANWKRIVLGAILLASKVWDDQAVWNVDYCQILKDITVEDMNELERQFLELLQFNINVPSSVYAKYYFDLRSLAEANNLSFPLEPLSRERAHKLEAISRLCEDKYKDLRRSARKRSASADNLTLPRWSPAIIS
CDK8/Cyclin C, sequence (P49336 whole entry): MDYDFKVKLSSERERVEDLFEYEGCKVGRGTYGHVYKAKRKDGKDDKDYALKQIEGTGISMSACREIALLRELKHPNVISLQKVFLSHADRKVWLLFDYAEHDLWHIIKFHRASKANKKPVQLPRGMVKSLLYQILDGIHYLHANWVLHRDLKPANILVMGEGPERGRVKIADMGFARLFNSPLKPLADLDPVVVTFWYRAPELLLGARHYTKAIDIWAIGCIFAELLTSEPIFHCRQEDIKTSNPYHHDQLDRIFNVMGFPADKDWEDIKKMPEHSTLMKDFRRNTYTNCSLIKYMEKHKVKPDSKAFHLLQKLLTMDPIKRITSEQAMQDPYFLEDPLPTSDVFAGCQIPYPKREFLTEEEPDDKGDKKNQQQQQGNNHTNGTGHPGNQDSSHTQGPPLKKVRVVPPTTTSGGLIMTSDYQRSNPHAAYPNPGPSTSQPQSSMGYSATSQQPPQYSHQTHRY
CDK8/Cyclin C, sequence (P24863 whole entry partner): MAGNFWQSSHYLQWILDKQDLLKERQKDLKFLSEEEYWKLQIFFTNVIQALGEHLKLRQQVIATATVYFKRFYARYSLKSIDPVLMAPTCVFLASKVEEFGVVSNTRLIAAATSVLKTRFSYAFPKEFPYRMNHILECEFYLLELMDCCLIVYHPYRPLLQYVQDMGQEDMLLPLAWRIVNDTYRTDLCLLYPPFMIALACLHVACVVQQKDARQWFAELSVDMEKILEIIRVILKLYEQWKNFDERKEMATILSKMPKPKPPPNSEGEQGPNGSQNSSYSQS
CDK6/Cyclin D1, sequence (Q00534 whole entry): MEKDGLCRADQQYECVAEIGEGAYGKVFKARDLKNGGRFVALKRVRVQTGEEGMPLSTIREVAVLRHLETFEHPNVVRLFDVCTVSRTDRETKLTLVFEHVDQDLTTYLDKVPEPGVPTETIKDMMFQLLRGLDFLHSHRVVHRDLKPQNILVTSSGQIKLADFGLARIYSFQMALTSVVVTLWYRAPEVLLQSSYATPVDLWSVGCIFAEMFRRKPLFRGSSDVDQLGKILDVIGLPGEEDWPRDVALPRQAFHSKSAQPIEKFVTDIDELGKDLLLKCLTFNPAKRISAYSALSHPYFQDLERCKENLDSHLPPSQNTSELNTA
CDK6/Cyclin D1, sequence (P24385 whole entry partner): as the sequence (P24385 whole entry partner) above
CDK17/Cyclin Y, sequence (Q00537 whole entry): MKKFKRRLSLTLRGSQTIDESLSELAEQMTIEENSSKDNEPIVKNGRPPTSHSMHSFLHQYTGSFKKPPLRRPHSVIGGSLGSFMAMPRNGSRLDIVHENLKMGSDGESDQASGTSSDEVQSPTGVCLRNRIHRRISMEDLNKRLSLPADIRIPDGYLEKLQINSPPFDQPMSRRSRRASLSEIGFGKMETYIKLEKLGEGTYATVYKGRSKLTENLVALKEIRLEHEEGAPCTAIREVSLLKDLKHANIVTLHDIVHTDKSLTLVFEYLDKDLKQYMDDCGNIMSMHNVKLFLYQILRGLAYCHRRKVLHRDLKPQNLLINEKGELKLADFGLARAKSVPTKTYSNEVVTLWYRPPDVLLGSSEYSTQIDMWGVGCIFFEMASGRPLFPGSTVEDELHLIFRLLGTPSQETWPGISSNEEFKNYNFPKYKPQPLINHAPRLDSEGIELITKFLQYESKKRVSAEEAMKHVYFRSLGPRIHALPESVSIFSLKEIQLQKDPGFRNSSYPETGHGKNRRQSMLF
CDK17/Cyclin Y, sequence (Q8ND76 whole entry partner): as the sequence (Q8ND76 whole entry partner) above
CDK16/Cyclin Y, sequence (Q00536 whole entry): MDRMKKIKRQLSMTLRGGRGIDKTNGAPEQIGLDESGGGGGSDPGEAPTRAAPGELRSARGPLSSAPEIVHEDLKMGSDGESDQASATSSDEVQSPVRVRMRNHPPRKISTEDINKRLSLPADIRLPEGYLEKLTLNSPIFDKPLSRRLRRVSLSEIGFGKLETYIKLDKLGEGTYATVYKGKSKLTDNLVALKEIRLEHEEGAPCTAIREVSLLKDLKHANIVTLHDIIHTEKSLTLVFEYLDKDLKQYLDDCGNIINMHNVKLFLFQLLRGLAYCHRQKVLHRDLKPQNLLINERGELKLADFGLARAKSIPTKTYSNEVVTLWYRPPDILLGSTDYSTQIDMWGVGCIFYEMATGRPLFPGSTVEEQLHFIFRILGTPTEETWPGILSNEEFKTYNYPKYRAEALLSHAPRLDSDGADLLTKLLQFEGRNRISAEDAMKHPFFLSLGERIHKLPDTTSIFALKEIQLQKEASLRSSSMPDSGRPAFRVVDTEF
CDK16/Cyclin Y, sequence (Q8ND76 whole entry partner): as the sequence (Q8ND76 whole entry partner) above
CDK1/Cyclin E1, sequence (P06493 whole entry): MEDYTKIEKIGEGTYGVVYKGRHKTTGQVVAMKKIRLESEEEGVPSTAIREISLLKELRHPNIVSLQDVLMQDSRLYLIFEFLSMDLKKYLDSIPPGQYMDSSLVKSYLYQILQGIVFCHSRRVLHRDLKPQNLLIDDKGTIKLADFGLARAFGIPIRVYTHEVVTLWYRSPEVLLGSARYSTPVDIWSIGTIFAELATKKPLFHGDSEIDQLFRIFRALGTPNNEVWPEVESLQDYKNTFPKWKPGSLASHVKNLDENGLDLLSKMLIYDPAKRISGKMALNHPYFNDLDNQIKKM
CDK1/Cyclin E1, sequence (P24864 whole entry partner): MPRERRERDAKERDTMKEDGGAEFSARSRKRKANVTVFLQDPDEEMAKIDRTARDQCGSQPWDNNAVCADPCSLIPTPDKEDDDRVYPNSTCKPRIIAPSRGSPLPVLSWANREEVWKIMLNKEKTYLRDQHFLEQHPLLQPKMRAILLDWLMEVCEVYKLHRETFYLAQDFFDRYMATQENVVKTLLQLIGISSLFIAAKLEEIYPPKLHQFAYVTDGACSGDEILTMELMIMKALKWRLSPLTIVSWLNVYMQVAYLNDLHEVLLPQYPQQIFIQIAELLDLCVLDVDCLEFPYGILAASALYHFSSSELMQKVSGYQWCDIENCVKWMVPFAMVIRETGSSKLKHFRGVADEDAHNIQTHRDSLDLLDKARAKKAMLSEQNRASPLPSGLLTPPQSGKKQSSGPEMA

## CS(=O)(=O)N1CCC(NC(=O)c2[nH]ncc2NC(=O)c2c(Cl)cccc2Cl)CC1 [NVP-LCQ195]
CDK1/Cyclin E1; average
  Inhibition at 10µM (%): 92.5%
CDK1/Cyclin E1; average (± SEM where n=3)
  IC50: 83 nM
CDK1/Cyclin E1; experiment 1
  Inhibition at 10µM (%): 94.8%
  IC50: 58 nM
CDK1/Cyclin E1; experiment 2
  Inhibition at 10µM (%): 90.2%
  IC50: 108 nM
CDK2/Cyclin E1
  Inhibition at 10µM (%): 99.5% and 98.9%
CDK4/Cyclin D1; average
  Inhibition at 10µM (%): 94.3%
CDK4/Cyclin D1; average (± SEM where n=3)
  IC50: 15 nM
CDK4/Cyclin D1; experiment 1
  Inhibition at 10µM (%): 100.8%
  IC50: 19 nM
CDK4/Cyclin D1; experiment 2
  Inhibition at 10µM (%): 87.9%
  IC50: 11 nM
CDK5/CDK5R1; average
  Inhibition at 10µM (%): 93.1%
CDK5/CDK5R1; average (± SEM where n=3)
  IC50: 31 nM
CDK5/CDK5R1; experiment 1
  Inhibition at 10µM (%): 90.4%
  IC50: 37 nM
CDK5/CDK5R1; experiment 2
  Inhibition at 10µM (%): 95.7%
  IC50: 25 nM
CDK6/Cyclin D1; average
  Inhibition at 10µM (%): 99.2%
CDK6/Cyclin D1; average (± SEM where n=3)
  IC50: 15 nM
CDK6/Cyclin D1; experiment 1
  Inhibition at 10µM (%): 98.6%
  IC50: 18 nM
CDK6/Cyclin D1; experiment 2
  Inhibition at 10µM (%): 99.9%
  IC50: 12 nM
CDK8/Cyclin C; average
  Inhibition at 10µM (%): 31.8%
CDK8/Cyclin C; experiment 1
  Inhibition at 10µM (%): 33.3%
CDK8/Cyclin C; experiment 2
  Inhibition at 10µM (%): 30.3%
CDK11A/Cyclin L2; average
  Inhibition at 10µM (%): 94.0%
CDK11A/Cyclin L2; average (± SEM where n=3)
  IC50: 160 nM
CDK11A/Cyclin L2; experiment 1
  Inhibition at 10µM (%): 93.9%
  IC50: 225 nM
CDK11A/Cyclin L2; experiment 2
  Inhibition at 10µM (%): 94.1%
  IC50: 95 nM
CDK11B/Cyclin L2; average
  Inhibition at 10µM (%): 94.8%
CDK11B/Cyclin L2; average (± SEM where n=3)
  IC50: 37 nM
CDK11B/Cyclin L2; experiment 1
  Inhibition at 10µM (%): 95.4%
  IC50: 35 nM
CDK11B/Cyclin L2; experiment 2
  Inhibition at 10µM (%): 94.2%
  IC50: 39 nM
CDK12/Cyclin K; average
  Inhibition at 10µM (%): 24.3%
CDK12/Cyclin K; experiment 1
  Inhibition at 10µM (%): 26.4%
CDK12/Cyclin K; experiment 2
  Inhibition at 10µM (%): 22.1%
CDK13/Cyclin K; average
  Inhibition at 10µM (%): 20.5%
CDK13/Cyclin K; experiment 1
  Inhibition at 10µM (%): 29.4%
CDK13/Cyclin K; experiment 2
  Inhibition at 10µM (%): 11.5%
CDK14/Cyclin Y; average
  Inhibition at 10µM (%): 90.1%
CDK14/Cyclin Y; average (± SEM where n=3)
  IC50: 470 nM
CDK14/Cyclin Y; experiment 1
  Inhibition at 10µM (%): 90.7%
  IC50: 607 nM
CDK14/Cyclin Y; experiment 2
  Inhibition at 10µM (%): 89.6%
  IC50: 330 nM
CDK15/Cyclin Y; average
  Inhibition at 10µM (%): 92.4%
CDK15/Cyclin Y; average (± SEM where n=3)
  IC50: 380 nM
CDK15/Cyclin Y; experiment 1
  Inhibition at 10µM (%): 93.0%
  IC50: 531 nM
CDK15/Cyclin Y; experiment 2
  Inhibition at 10µM (%): 91.9%
  IC50: 220 nM
CDK16/Cyclin Y; average (± SEM where n=3)
  IC50: 13 nM
CDK16/Cyclin Y; experiment 1
  Inhibition at 10µM (%): 92.7%
  IC50: 11 nM
CDK16/Cyclin Y; experiment 2
  Inhibition at 10µM (%): 92.6%
  IC50: 14 nM
CDK17/Cyclin Y; average
  Inhibition at 10µM (%): 92.4%
CDK17/Cyclin Y; average (± SEM where n=3)
  IC50: 11 nM
CDK17/Cyclin Y; experiment 1
  Inhibition at 10µM (%): 92.3%
  IC50: 14 nM
CDK17/Cyclin Y; experiment 2
  Inhibition at 10µM (%): 92.4%
  IC50: 7.7 nM
CDK18/Cyclin Y; average
  Inhibition at 10µM (%): 97.0%
CDK18/Cyclin Y; average (± SEM where n=3)
  IC50: 240 nM
CDK18/Cyclin Y; experiment 1
  Inhibition at 10µM (%): 93.5%
  IC50: 310 nM
CDK18/Cyclin Y; experiment 2
  Inhibition at 10µM (%): 100.6%
  IC50: 166 nM
CDK20/Cyclin H; experiment 1
  Inhibition at 10µM (%): 26.0%
CDK20/Cyclin H; experiment 2
  Inhibition at 10µM (%): 16.0%
CDK19/Cyclin C; average
  Inhibition at 10µM (%): 37.8%
CDK19/Cyclin C; experiment 1
  Inhibition at 10µM (%): 38.7%
CDK19/Cyclin C; experiment 2
  Inhibition at 10µM (%): 37.0%
CDK10/Cyclin L2; average
  Inhibition at 10µM (%): 70.2%
CDK10/Cyclin L2; experiment 1
  Inhibition at 10µM (%): 74.4%
CDK10/Cyclin L2; experiment 2
  Inhibition at 10µM (%): 66.1%
